Assay results taken from US7291499B2, “Transformed cell, method of screening anti-aging agent and anti-aging agent” (priority 2001, dated 2007).

Columns and labels:
[1] = system: WI-38 cell with activated Raf kinase region-estrogen receptor fusion gene; experiment: Cell growth in tamoxifen-inducible activated Raf cellular senescence system; format: cell-based, human; settings: for inhibition of the termination of cell growth induced by the activation of Raf: Raf activated by 10 nM tamoxifen, 25 μM inhibitor added simultaneously
Method: (§1) This is a result of fusing an estrogen receptor gene with a sequence coding for the kinase region of activated Raf gene.
(§2) (1) In accordance with the aforementioned method, induction of cellular senescence was tested by carrying out gene transfer into the WI-38 cell and thereby constructing a system which can induce cellular senescence by the administration of tamoxifen.
(§3) The results are shown in FIG. 12, FIG. 13, FIG. 14 and FIG. 15.

[2] = system: WI-38 cell with activated Raf kinase region-estrogen receptor fusion gene; experiment: β-galactosidase positive cells in tamoxifen-inducible activated Raf cellular senescence system; format: cell-based, human; settings: for inhibition of the increase of cellular senescence-specific β-galactosidase positive cell induced by the activation of Raf: Raf activated by 10 nM tamoxifen, 25 μM inhibitor added simultaneously
Method: as §1, §2, §3

[3] = system: human normal fibroblast WI-38; experiment: Cell growth curve (WST-1 relative cell number) of young and senescent WI-38 cells with p38 protein inhibitor; format: cell-based
From the text: In the example, effect of a p38 protein inhibitor SB203580 was compared using the same young cell (42 times of division) and senescent cell (61 times of division) of the human normal fibroblast WI-38 used in Reference Example 1. Specifically, the same procedure of the following Example 2 (2) was repeated, except that a young cell (42 times of division) and a senescent cell (61 times of division) of the human normal fibroblast WI-38 cultured in the same manner in Reference Example 1(1) were used instead of the transformed cell.
In FIG. 3, the polygonal line a is cell growth curve of the young cell in the presence of SB203580, the polygonal line b is cell growth curve of the young cell in the absence of SB203580, the polygonal line c is cell growth curve of the senescent cell in the presence of SB203580 and the polygonal line d is cell growth curve of the senescent cell in the absence of SB203580. The symbol “+SB” in FIG. 3 means that it was treated with 10 μmol//L of SB203580.
The relative number of cells during these 6 days was measured every other day using a commercially available kit [Cell Counting Kit (WST-1 assay), manufactured. by DOJINDO].
The WST-1 assay is a method to know indirectly degree of cell growth ability with the use of the calorimetric determination of the activity of dehydration reactions wherein intracellular lactate dehydrogenase and the like are related.
Measurement and calculation of the relative cell number were specifically carried out by the following method. That is, 1,000 cells per each well of a 96 well plate were precultured for 24 hours. […] After the reaction, measurement was carried out using a plate reader (measuring wave length=450 nm). These were measured on three samples on each of the measuring days (on the 0th, 2nd, 4th and 6th days) during the growth period, and the average values were used as the data of respective measuring days. The relative number of cells of measured values on respective measuring days was calculated by defining the average of measured values on the 0th day as 1.

[4] = system: human normal fibroblast WI-38; experiment: Ratio of S phase cell by FACS analysis (BrdU labeling) in young and senescent WI-38 cells; format: cell-based
Method: Also, the ratio of S phase cells in each treated group was determined by FACS analysis in accordance with the procedure described in the following Example 2(3-a), and the results shown in FIG. 4. The symbol “+” in FIG. 4 means that it was treated with 10 μmol//L of SB203580.
[…] Next, the cells were fixed with 70% ethanol and treated with 2 mol//L hydrochloric acid for 30 minutes. Subsequently, they were neutralized with 0.1 mol//L sodium borate and then allowed to react with FITC-labeled anti-BrdU antibody (manufactured by BECTON DICKINSON) for 1 hour. After completion of the reaction, the cells were washed with a washing buffer [PBS containing 0.5% Tween 20 and 1% bovine serum albumin (BSA)] and suspended in a PBS solution containing 5 μg/ml ProPidium Iodide (PI). The samples were analyzed by a two dimensional flow cytometry.

[5] = system: human normal fibroblast WI-38; experiment: Cell morphology and cellular senescence-specific β-galactosidase activity in WI-38 cells; format: cell-based; settings: senescent cell (61 times of division), SB203580-treated
Method: Specifically, young and senescent cells of the human normal fibroblast WI-38 were respectively washed with PBS and then fixed using 0.5% glutaraldehyde aqueous solution. After the fixation, the cells were soaked in a staining solution [prepared by dissolving 1 mg/ml of X-gal (5-bromo-4-chloro-3-indolyl-[…]), 5 mmol//L potassium ferrocyanide, 5 mmol//L potassium feriocyanide and 1 mmol//L magnesium chloride in phosphate buffered saline (PBS; pH 6.0)] and allowed to react at 37° C. for 5 hours or more.
In addition, cell morphology and β-galactosidase activity in each treated group were analyzed in accordance with the procedure described in Reference Example 1(2).

[6] = system: MKK6 gene- or MKK6EE gene-introduced human normal fibroblast WI-38; experiment: Ratio of β-galactosidase positive cells in MKK6 or MKK6EE gene-introduced transformed cell; format: cell-based; settings: 10 μmol//L SB203580, culturing period of 6 days
Method: Specifically, young and senescent cells of the human normal fibroblast WI-38 were respectively washed with PBS and then fixed using 0.5% glutaraldehyde aqueous solution. After the fixation, the cells were soaked in a staining solution [prepared by dissolving 1 mg/ml of X-gal (5-bromo-4-chloro-3-indolyl-β-galactosidase), 5 mmol//L potassium ferrocyanide, 5 mmol//L potassium feriocyanide and 1 mmol//L magnesium chloride in phosphate buffered saline (PBS; pH 6.0)] and allowed to react at 37° C. for 5 hours or more.
Next, the procedure described in Reference Example 1 (2) was repeated, except that the two species of the transformed cell of the present invention and one species of a control cell wherein the vector alone was introduced, obtained by repeating the same procedure of Example 2(1), (cells after a culturing period of 6 days in each case; SB203580-untreated cells) and the two species of the transformed cell of the present invention and one species of a control cell wherein the vector alone was introduced, obtained by repeating the same procedure of Example 2(2), (cells after a culturing period of 6 days in each case; SB203580-treated cells) were used. […]

[7] = system: MKK6 gene- or MKK6EE gene-introduced human normal fibroblast WI-38; settings: 10 μmol//L SB203580 from the 4th day after infection, 6 days culture
Method: As the target cell, young cell (42 PD; 5×10^5 cells/10 cm dish) of the human normal fibroblast WI-38 was cultured for 8 hours in the virus supernatant to which polybrene (final concentration=8 μg/ml) had been added. The virus supernatant was once removed, and then fresh virus supernatant [containing polybrene (final concentration=8 μg/ml)] was again added, followed by the culturing for 8 hours. Each of the infection-treated cells was cultured for 3 days in DMEM containing puromycin (2.5 μg/ml).
On the 4th day after carrying out the infection, the medium was changed to DMEM containing 2.5% dimethyl sulfoxide (DMSO), followed by the culturing for 6 days. […] The relative number of cells during these 6 days was measured every other day using a commercially available kit [Cell Counting Kit (WST-1 assay), manufactured. by DOJINDO].
Measurement and calculation of the relative cell number were specifically carried out by the following method. […] After the reaction, measurement was carried out using a plate reader (measuring wave length=450 nm). These were measured on three samples on each of the measuring days (on the 0th, 2nd, 4th and 6th days) during the growth period, and the average values were used as the data of respective measuring days. The relative number of cells of measured values on respective measuring days was calculated by defining the average of measured values on the 0th day as 1. […]

[8] = system: phosphorylation type p38 protein (active type p38 protein); experiment: Western blotting of phosphorylated state of p38 protein; format: cell-based, human; settings: young cell (42 PD), 30 μmol//L anisomycin for 30 minutes, positive control, versus untreated young cell
From the text: In this reference example, the phosphorylated state of p38 protein in young and senescent cells of the human normal fibroblast WI-38 was confirmed by a Western blotting respectively using an antibody capable of detecting total p38 protein and another antibody capable of specifically detecting a phosphorylation type p38 protein (namely active type p38 protein) alone.
Specifically, young and senescent cells of the human normal fibroblast WI-38 (about 5×10^6 cells) cultured in the same manner as in Reference Example 1(1) were respectively dissolved in 0.1 ml of a buffer solution for dissolution [lysis buffer; 150 mmol//L sodium chloride, 0.5% NP-40, 50 mmol//L Tris-HCl (pH 7.5), 3 mmol//L EDTA, 3 mmol//L EGTA, 3 mmol//L glycerophosphate, […] Na3VO4, 1 μg/ml leupeptin and 1 mmol//L phenylmethanesulfonyl fluoride (PMSF)].
Subsequently, each extraction sample corresponding to 30 μg as the amount of protein was separated by an SDS polyacrylamide gel electrophoresis in the usual way and then transferred on a membrane (Immobilon-P membrane; manufactured by Millipore). After subjecting the membrane to a blocking treatment using a commercially available blocking agent (Block Ace; manufactured. by Dainippon Pharmaceutical), a primary antibody reaction and a secondary antibody reaction were carried out in order. […]

[9] = young cell (42 times of division), 10 μmol//L SB203580, same in presence or absence
[10] = induction of cellular senescence via Raf-estrogen receptor fusion

Compound: COc1cccc(-c2cc(=O)c3ccccc3o2)c1N [PD98059]
- inhibition of the termination of cell growth induced by the activation of Raf [1]: partially inhibited
- inhibition of the increase of cellular senescence-specific β-galactosidase positive cell induced by the activation of Raf [2]: partially inhibited

Compound: C[S+]([O-])c1ccc(-c2nc(-c3ccc(F)cc3)c(-c3ccncc3)[nH]2)cc1 (stereo not shown) [SB203580, 4-[4-(4-fluorophenyl)-2-[4-(methylsulfinyl)phenyl]-1H-imidazol-5-yl]-pyridine]
- anti-aging activity upon senescent cell ([3]; senescent cell (61 PD) of WI-38, illustrative data not shown): showed the anti-aging activity
- cell growth in comparison with the untreated case ([3]; senescent cell (61 times of division), 10 μmol//L SB203580): accelerated growth
- doubling time [3, 9]: about 2 days
- S phase cell ([4]; senescent cell (61 times of division), 10 μmol//L SB203580, 72 hours of BrdU labeling, untreated about 5%): about 25%
- S phase cell [4, 9]: about 20%
- cellular senescence-specific β-galactosidase-positive degree [5]: low
- morphology of the flat cytoplasm [5]: became thin
- increase of the cellular senescence-specific β-galactosidase positive cells [6]: inhibited
- inhibition of the termination of cell growth induced by the activation of Raf [1]: more strongly than the PD98059
- inhibition of the increase of cellular senescence-specific β-galactosidase positive cell induced by the activation of Raf [2]: more strongly than the PD98059
- growth inhibitory effect by the MKK6 gene or MKK6EE gene [7]: inhibited

Compound: COc1ccc(C[C@H]2NC[C@H](O)[C@H]2OC(C)=O)cc1 [anisomycin]
- active type p38 protein amount [8]: increased

Compound: CC/C(=C(\c1ccccc1)c1ccc(OCCN(C)C)cc1)c1ccccc1 [tamoxifen]
- tamoxifen concentration at which termination of cell growth was observed [1, 10]: ≥ 1 nM
- tamoxifen concentration at which increase of cellular senescence-specific β-galactosidase positive cell was observed [2, 10]: ≥ 1 nM
